Assay [1] concerns PC-3 cell proliferation. The experiment in a line: Cell proliferation assay (WST-1), PC-3. The class given is cell-based. Particulars: Homo sapiens; PC-3 cells, WST-1 readout; read-out: inhibitory activity against PC-3 cell proliferation (IC50 range). The protocol: A panel of cancer cell lines was obtained from the DCTP Tumor Repository, National Cancer Institute (Frederick, Md.) or ATCC (Rockville, Md.). Cell cultures were maintained in Hyclone RPMI 1640 medium (Logan, Utah) supplemented with 10% fetal bovine serum and 20 mM HEPES buffer, final pH 7.2, at 37° C. with a 5% CO2 atmosphere. Cultures were maintained at sub-confluent densities. Human umbilical vein endothelial cells (HUVEC) were purchased from Clonetics, a division of Cambrex (Walkersville, Md.). Cultures were established from cryopreserved stocks using Clonetics EGM-2 medium supplemented with 20 mM HEPES, final pH 7.2, at 37° C. with a 5% CO2 atmosphere.
For proliferation assays, cells were seeded with the appropriate medium into 96 well plates at 1,000-2,500 cells per well, depending on the cell line, and were incubated overnight. The following day, test compound, DMSO solution (negative control), or Actinomycin D (positive control) was added to the appropriate wells as 10× concentrated stocks prepared in phosphate buffered saline. The cell plates were then incubated for an additional 2-5 days, depending on the cell line, to allow proliferation to occur. To measure cell density, 50 μL of WST-1 solution (Roche Applied Science, Ind.) diluted 1:5 in phosphate buffered saline was added to each well, and the cells incubated for an additional 1-5 hrs., again depending on the cell line. Optical density was determined for each well at […] using a Tecan GeniosPro plate reader (RTP, NC). The percentage of cell growth was determined by comparing the cell growth in the presence of test compounds to the cells treated with DMSO vehicle (control, 100% growth) and cells treated with Actinomycin D (10 μM, 0% growth). […]
In general terms: Tetrazolium assays rely on reduction of a dye to a coloured formazan, in cell work by metabolically active cells.

In assay [2] the test system is HSP-90 (heat shock protein 90). The assay is described as follows: Determination of affinity for HSP-90 (elution from purine affinity column, SDS-PAGE densitometry). In kind it is binding. Further details: key: +++: very high; ++: high; +: moderate. The conditions noted are these: elution of HSP-90 from purine affinity column with 20, 100 and 500 μM test compound. The procedure: Affinity of test compounds for HSP-90 was determined as follows: Protein mixtures obtained from a variety of organ tissues (for example: spleen, liver and lung) were reversibly bound to a purine affinity column to capture purine-binding proteins, especially HSP-90. The purine affinity column was washed several times, and then eluted with 20 μM, 100 μM, and 500 μM of test compound. Compounds of Formula I elute HP-90 in a dose-dependent manner vs. a control elution using dimethylsulfoxide. The elution profile of Formula I compounds was determined by 1-dimensional SDS polyacrylamide gel electrophoresis. Gels were stained with a fluorescent stain such as sypro ruby (a highly sensitive fluorescent protein stain that can readily detect less than 1 fmol of total protein, i.e., less than 0.04 ng for a 40 kDa protein) or silver nitrate. The gels were imaged using a standard flat bed gel imager and the amount of protein estimated by densitometry. The percent of HSP-90 protein eluted from the column at each concentration was determined and IC50 values were calculated from these estimates. The identity of a band containing HSP-90 was determined by protein sequencing using mass spectroscopy.
Compounds of the invention are inhibitors of HSP-90 (heat shock protein 90). Several exemplary compounds useful in the methods of the invention are listed below.

Consider `CCCCOc1cc(C(N)=O)ccc1-n1cc(C)c2c1CC(C)(C)CC2=O` [Compound 53, 3-butoxy-4-(3,6,6-trimethyl-4-oxo-4,5,6,7-tetrahydroindol-1-yl)benzamide], for which the IC50 in assay [1] lay in the range of 5 to 50 µM. In addition, in assay [2], the “relative binding affinity to HSP-90” value is recorded as “++”.

In the case of `Cc1cn(-c2ccc(C(N)=O)c(NC(N)=O)c2)c2c1C(=O)CC(C)(C)C2` [Compound 55, 1-(2-carbamoyl-5-(3,6,6-trimethyl-4-oxo-4,5,6,7-tetrahydroindol-1-yl)phenyl)urea], the IC50 in assay [1] fell in the range of 0.5 to 5 µM. Also, in assay [2], the “relative binding affinity to HSP-90” value is on record as “++”.

With `Cc1cc2c(n1-c1ccc(C(N)=O)cc1-c1ccsc1)CC(C)(C)CC2=O` [Compound 70, 3-(3-thienyl)-4-(2,6,6-trimethyl-4-oxo-4,5,6,7-tetrahydro-1H-indol-1-yl)benzamide], the IC50 in assay [1] fell in the range of 5 to 50 µM. In addition, the “relative binding affinity to HSP-90” value in assay [2] is “+”.

For `COc1cc(Nc2cc(-n3c(C)cc4c3CC(C)(C)CC4=O)ccc2C(N)=O)cc(OC)c1OC` [Compound 76, 2-[(3,4,5-trimethoxyphenyl)amino]-4-(2,6,6-trimethyl-4-oxo-4,5,6,7-tetrahydro-1H-indol-1-yl)benzamide], the IC50 in assay [1] was 0.5 to 5 µM. Also, the “relative binding affinity to HSP-90” value in assay [2] is on record as “+++”.

Regarding `Cc1cc2c(n1-c1ccc(C(N)=O)c(-c3ccncc3)c1)CC(C)(C)CC2=O` [Compound 77, 2-pyridin-4-yl-4-(2,6,6-trimethyl-4-oxo-4,5,6,7-tetrahydro-1H-indol-1-yl)benzamide], in assay [1], the IC50 lay in the range of 5 to 50 µM. In addition, the “relative binding affinity to HSP-90” value in assay [2] is reported as “++”.

With `Cc1cc2c(n1-c1ccc(C(N)=O)c(NN3CCOCC3)c1)CC(C)(C)CC2=O` [Compound 94, 2-(morpholin-4-ylamino)-4-(2,6,6-trimethyl-4-oxo-4,5,6,7-tetrahydro-1H-indol-1-yl)benzamide], the IC50 in assay [1] is 5 to 50 µM. Also, in assay [2], the “relative binding affinity to HSP-90” value is “++”.

For the molecule `CC(=O)Nc1cc(-n2cc(C)c3c2CC(C)(C)CC3=O)ccc1C(N)=O` [Compound 98, 2-(acetylamino)-4-(3,6,6-trimethyl-4-oxo-4,5,6,7-tetrahydro-1H-indol-1-yl)benzamide], in assay [1], the IC50 was < 0.5 µM. Besides, in assay [2], the “relative binding affinity to HSP-90” value is on record as “+++”.

Consider `Cc1cn(-c2ccc(C(N)=O)c(N3CCN(C)CC3)c2)c2c1C(=O)CC(C)(C)C2` [Compound 99, 2-(4-methylpiperazin-1-yl)-4-(3,6,6-trimethyl-4-oxo-4,5,6,7-tetrahydro-1H-indol-1-yl)benzamide], for which the IC50 in assay [1] lay within 5 to 50 µM. In addition, the “relative binding affinity to HSP-90” value in assay [2] is “++”.

For `CCc1cc(-n2nc(C)c3c2CC(C)(C)CC3=O)ccc1C(N)=O` [Compound 102, 2-ethyl-4-(3,6,6-trimethyl-4-oxo-4,5,6,7-tetrahydro-1H-indazol-1-yl)benzamide], the IC50 in assay [1] lay within 5 to 50 µM. In addition, the “relative binding affinity to HSP-90” value in assay [2] is on record as “++”.

Take `CCCCSc1cc(-n2nc(C)c3c2CC(C)(C)CC3=O)ccc1C(N)=O` [Compound 103, 2-(butylthio)-4-(3,6,6-trimethyl-4-oxo-4,5,6,7-tetrahydro-1H-indazol-1-yl)benzamide]: in assay [1], the IC50 lay within 0.5 to 5 µM. In assay [2], the “relative binding affinity to HSP-90” value was “++”.

Turning to `Cc1cn(-c2ccc(C(N)=O)c(Sc3ccncc3)c2)c2c1C(=O)CC(C)(C)C2` [Compound 105, 2-(pyridin-4-ylthio)-4-(3,6,6-trimethyl-4-oxo-4,5,6,7-tetrahydro-1H-indol-1-yl)benzamide], in assay [1], the IC50 was in the range of 5 to 50 µM. In addition, in assay [2], the “relative binding affinity to HSP-90” value is given as “++”.

As for `Cc1nn(-c2ccc(C(N)=O)c(NC3CCC3)c2)c2c1C(=O)CC(C)(C)C2` [Compound 117, 2-(cyclobutylamino)-4-(3,6,6-trimethyl-4-oxo-4,5,6,7-tetrahydro-1H-indazol-1-yl)benzamide], in assay [1], the IC50 is < 0.5 µM. In addition, the “relative binding affinity to HSP-90” value in assay [2] is “+++”.

Take `Cc1nn(-c2ccc(C(N)=O)c(NC(CCO)CCO)c2)c2c1C(=O)CC(C)(C)C2` [Compound 121, 2-{[3-hydroxy-1-(2-hydroxyethyl)propyl]amino}-4-(3,6,6-trimethyl-4-oxo-4,5,6,7-tetrahydro-1H-indazol-1-yl)benzamide]: the IC50 in assay [1] fell in the range of 0.5 to 5 µM. In addition, in assay [2], the “relative binding affinity to HSP-90” value is given as “+++”.

For `CC1(C)CC(=O)c2c(C(F)(F)F)nn(-c3ccc(C(N)=O)c(NCCNS(C)(=O)=O)c3)c2C1` [Compound 133, 4-[6,6-dimethyl-4-oxo-3-(trifluoromethyl)-4,5,6,7-tetrahydro-1H-indazol-1-yl]-2-({2-[(methylsulfonyl)amino]ethyl}amino)benzamide], the IC50 in assay [1] is 5 to 50 µM. The “relative binding affinity to HSP-90” value in assay [2] is “++”.

(Values after US7928135B2, “Benzene, pyridine, and pyridazine derivatives” (Serenex, Inc., priority 2005, dated 2011).)
